# Values joined by “and” are separate entries in the source; they are usually repeats but may differ in a detail not shown here. Identical values can stand only once. “Also recorded” adds a separate entry of the source. Like-named read-outs stand apart in the source and are kept apart here.
# How the values were obtained:
# human soluble ENPP1 = molecular target: T1, human soluble ENPP1 (Homo sapiens, UniProt P22413); test: Enzyme-based ENPP1 inhibitory assay (pNP-TMP substrate, 405 nm); format: biochemical; conditions: for inhibition at 10 µM: pH 9, 10 μM compound, 200 μM pNP-TMP, pH 9.0, 37 °C; for IC50: three independent enzymatic assays, read-out: IC50 against ENPP1 (enzymatic assay)
# T1 construct: addition of 20 ng of human soluble ENPP1; His; made in house; host or cells: 293-F cells (protein harvested from the medium)
# T1 sequence (P22413 103-925 limits assumed): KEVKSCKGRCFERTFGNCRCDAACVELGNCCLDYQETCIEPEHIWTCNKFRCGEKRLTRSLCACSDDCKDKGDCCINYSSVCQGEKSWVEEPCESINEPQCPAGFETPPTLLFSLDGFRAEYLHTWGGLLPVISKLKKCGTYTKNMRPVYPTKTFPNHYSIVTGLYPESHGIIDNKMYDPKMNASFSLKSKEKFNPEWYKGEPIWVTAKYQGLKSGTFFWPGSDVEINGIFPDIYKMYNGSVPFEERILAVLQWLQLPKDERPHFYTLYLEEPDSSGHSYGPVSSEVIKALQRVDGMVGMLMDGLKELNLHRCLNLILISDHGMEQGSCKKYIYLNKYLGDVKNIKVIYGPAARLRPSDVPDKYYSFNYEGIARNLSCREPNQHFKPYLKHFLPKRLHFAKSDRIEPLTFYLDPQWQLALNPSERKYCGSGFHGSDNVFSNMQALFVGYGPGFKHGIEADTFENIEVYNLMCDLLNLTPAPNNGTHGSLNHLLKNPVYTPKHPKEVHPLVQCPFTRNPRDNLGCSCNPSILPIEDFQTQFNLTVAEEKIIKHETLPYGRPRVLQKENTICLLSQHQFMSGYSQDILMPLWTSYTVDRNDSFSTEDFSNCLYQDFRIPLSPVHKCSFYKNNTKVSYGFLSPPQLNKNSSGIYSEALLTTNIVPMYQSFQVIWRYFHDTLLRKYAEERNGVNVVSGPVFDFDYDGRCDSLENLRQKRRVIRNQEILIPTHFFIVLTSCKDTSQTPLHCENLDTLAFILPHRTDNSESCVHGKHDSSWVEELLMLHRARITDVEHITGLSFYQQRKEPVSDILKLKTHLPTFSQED
# Method: In total, 1 mg hENPP1-HIS DNA using polyethylenimine at a DNA:PEI ratio of 1:3 was transfected into 1 L of 293-F cells in 293 freestyle medium. The medium was harvested after five days and filter-sterilized. […] Approximately 1 mg of purified protein was obtained from the 1-liter culture. The quality of the protein purification was validated by SDS-PAGE analysis (see Figure S1).
# The initial screenings were carried out at 37 °C in a total volume of 0.1 mL of the following incubation mixture: 1 mM CaCl2, 200 μM ZnCl2, 50 mM Tris, pH 9.0, and 10 μM of each test compound. The enzyme reactions began with the addition of 20 ng of human soluble ENPP1, then incubated at 37 °C for 10 min and initiated by the addition of 200 μM pNP-TMP. The production of p-nitrophenol was measured after 30 min reaction at 405 nm. […] For the blank samples, the enzyme was added at the end of the reaction and read immediately. The IC50 values of test compounds were calculated by plotting three independent experiments using the program Prism 5.0. Incubation and operation conditions remained the same as those described above.
# [1] = molecular target: T2, ENPP1 in the MDA-MB-231 cell line (Homo sapiens, UniProt P22413); test: Cellular ENPP1 enzymatic inhibition assay in MDA-MB-231 cells (pNP-TMP); format: cell-based; conditions: 4 h incubation, 200 μM pNP-TMP; three independent cell assays; read-out: IC50 against ENPP1 in MDA-MB-231 cell line
# T2 construct: MDA-MB-231 cells highly expressed ENPP1; endogenous in cells; host or cells: MDA-MB-231
# T2 sequence (P22413 1-925): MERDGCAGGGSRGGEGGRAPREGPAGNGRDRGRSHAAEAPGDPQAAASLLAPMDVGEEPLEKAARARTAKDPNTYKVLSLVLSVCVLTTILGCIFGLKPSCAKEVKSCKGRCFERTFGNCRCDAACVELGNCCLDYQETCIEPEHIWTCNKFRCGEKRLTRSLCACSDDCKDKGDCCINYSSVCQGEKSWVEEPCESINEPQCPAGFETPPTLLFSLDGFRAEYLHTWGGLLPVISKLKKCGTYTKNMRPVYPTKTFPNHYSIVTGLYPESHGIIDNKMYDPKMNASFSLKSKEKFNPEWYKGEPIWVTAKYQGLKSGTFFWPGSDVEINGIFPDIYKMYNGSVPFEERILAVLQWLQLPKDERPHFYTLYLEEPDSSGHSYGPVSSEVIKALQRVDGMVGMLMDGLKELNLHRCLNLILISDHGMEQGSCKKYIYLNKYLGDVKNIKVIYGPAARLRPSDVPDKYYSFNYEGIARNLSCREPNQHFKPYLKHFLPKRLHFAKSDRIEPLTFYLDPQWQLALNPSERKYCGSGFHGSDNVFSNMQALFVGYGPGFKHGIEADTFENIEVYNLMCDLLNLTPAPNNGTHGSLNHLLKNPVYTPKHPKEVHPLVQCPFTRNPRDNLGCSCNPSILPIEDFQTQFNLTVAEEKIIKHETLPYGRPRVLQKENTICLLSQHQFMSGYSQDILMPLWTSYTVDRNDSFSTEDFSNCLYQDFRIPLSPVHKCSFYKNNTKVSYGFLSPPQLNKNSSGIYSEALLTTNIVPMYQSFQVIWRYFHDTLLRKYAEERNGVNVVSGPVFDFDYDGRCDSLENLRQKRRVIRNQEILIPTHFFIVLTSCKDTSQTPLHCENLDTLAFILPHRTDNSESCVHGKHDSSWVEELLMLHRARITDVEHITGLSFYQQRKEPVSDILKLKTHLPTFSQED
# Method: MDA-MB-231 (1.0 × 10^4 cells/well) were grown on 96-well microplates (IWAKI) overnight in the culture medium (100 μL/well) in a humidified incubator containing 5% CO2 in air at 37 °C for 24 h. The plates were washed with D-Hanks (100 μL) twice, and fresh D-Hanks (80 μL) was added. 5% DMSO or test compound (10 μL) was added to each well, and eventually pNP-TMP (2 mM, 10 μL, final 200 μM) was added. After 4 h incubation at 37 °C, the amounts of released p-nitrophenolate were measured at 405 nm. The IC50 values of test compounds were calculated by plotting three independent experiments using the program Prism 5.0 [38].
# IFN-β in serum = test: IFN-β in mouse serum by ELISA after i.v. administration; format: in vivo, BALB/c nude mice; conditions: blood after 0.5 h
# Method: The animal studies were conducted with the approval of the Animal Care and Use Committee at Fudan University. BALB/c nude mice (6−8 weeks) were randomized into three groups (n = 3, with a total tumor number of 9). Free cGAMP (at dose of 5 mg/kg) and cGAMP-compound 4e (at doses of 5 mg/kg cGAMP and 0.5 mg/kg compound 4e), respectively, were injected intravenously (i.v.) into mice via tail vein. After i.v. administration, mouse blood samples were collected from ophthalmic vein after 0.5 h and centrifuged at 500× g for 20 min. The concentration of IFN-β in the serum was determined by mouse ELISA kits, according to the instruction manual.
# LO2 cell line = test: Cell viability assay (CCK8), LO2; format: cell-based
# Method: (§1) Next, the culture was replaced by fresh DMEM medium (200 μL) and the compound (10 μL) was added. After forty-eight hours, the medium was replaced by PBS (180 μL) mixture with CCK8 solution (20 μL) in each well. Cell viability was evaluated by testing the OD450 nm. The data were processed by GraphPad Prism 7.0 [45, 46].
# 4T1 cell line = test: Cell proliferation assay (CCK8), 4T1; format: cell-based; conditions: CCK8, 48 h, read-out: IC50 against 4T1 cell line
# Method: as §1, with “In total, 1 × 10^4 cells (4T1, LO2 and 293T) were plated in 96-well flat-bottom plates in a final volume of 200 μL DMEM supplemented with 10% FBS and cultured for 24 h. Next,” for “Next,”
# 293T cell line = test: Cell viability assay (CCK8), 293T; format: cell-based
# Method: as §1
structure (smiles),measurement,setting,value
"COc1ccc2[nH]c(SCc3nc4cc(Cl)ccc4c(=O)[nH]3)nc2n1 [Compound 4f, 7-Chloro-2-(((5-methoxy-1H-imidazo[4,5-b]pyridin-2-yl)thio)methyl)quinazolin-4(3H)-one]",inhibition at 10 µM,human soluble ENPP1,52.9%
"COc1ccc2[nH]c(SCc3nc4c(C)cccc4c(=O)[nH]3)nc2n1 [Compound 4g, 2-(((5-Methoxy-1H-imidazo[4,5-b]pyridin-2-yl)thio)methyl)-8-methylquinazoli-n-4(3H)-one]",inhibition at 10 µM,human soluble ENPP1,72.7%
"COC(=O)c1ccc2c(=O)[nH]c(CSc3nc4nc(OC)ccc4[nH]3)nc2c1 [Compound 4d, Methyl 2-(((5-methoxy-1H-imidazo[4,5-b]pyridin-2-yl)thio)methyl)-4-oxo-3,4-dihydroquina-zoline-7-carboxylate]",IC50,[1],3340 nM
same,inhibition at 10 µM,human soluble ENPP1,> 90%
same,IC50,human soluble ENPP1,694 nM
"COc1ccc2[nH]c(SCc3nc4cc(F)ccc4c(=O)[nH]3)nc2n1 [Compound 4e, 7-Fluoro-2-(((5-methoxy-1H-imidazo[4,5-b]pyridin-2-yl)thio)methyl)quinazolin-4(3H)-one]",IC50,[1],< 1000 nM and 732 nM
same,inhibition at 10 µM,human soluble ENPP1,> 90%
same,IC50,human soluble ENPP1,188 nM and < 1000 nM
same,"IFN-β expression level in serum, cGAMP-compound 4e group compared with free-cGAMP group",IFN-β in serum; 5 mg/kg cGAMP and 0.5 mg/kg compound 4e i.v.,higher
same,cytotoxic effect (% inhibition) against LO2,"LO2 cell line; 50 μM, CCK8, 48 h",15.33%
same,cytotoxic effect on LO2 (in words),LO2 cell line; highest concentration 50 μM,nonsignificant cytotoxic effect; also recorded: negligible cytotoxic effects
same,IC50,"4T1 cell line; Mus musculus, 4T1",2990 nM
same,cytotoxic effect (% inhibition) against 293T,"293T cell line; 50 μM, CCK8, 48 h",9.35%
same,cytotoxic effect on 293T (in words),293T cell line; highest concentration 50 μM,nonsignificant cytotoxic effect; also recorded: negligible cytotoxic effects
"COc1ccc2[nH]c(SCc3nc4cccc(F)c4c(=O)[nH]3)nc2n1 [Compound 4a, 5-Fluoro-2-(((5-methoxy-1H-imidazo[4,5-b]pyridin-2-yl)thio)methyl)quinazol-in-4(3H)-one]",inhibition at 10 µM,human soluble ENPP1,72.2%
"N.N.[Cl][Pt][Cl] [Cisplatin, cisplatin, reference compound]",IC50,4T1 cell line,3200 nM
"COc1ccc2[nH]c(SCc3nc4cc(C)ccc4c(=O)[nH]3)nc2n1 [Compound 4c, 2-(((5-Methoxy-1H-imidazo[4,5-b]pyridin-2-yl)thio)methyl)-7-methylquinazoli-n-4(3H)-one]",inhibition at 10 µM,human soluble ENPP1,75.4%
"COc1ccc2[nH]c(SCc3nc4c(Br)cccc4c(=O)[nH]3)nc2n1 [Compound 4h, 8-Bromo-2-(((5-methoxy-1H-imidazo[4,5-b]pyridin-2-yl)thio)methyl)quinazoli-n-4(3H)-one]",inhibition at 10 µM,human soluble ENPP1,55.5%
"COc1ccc2nc(CSc3nc4nc(OC)ccc4[nH]3)[nH]c(=O)c2c1 [Compound 4b, 6-Methoxy-2-(((5-methoxy-1H-imidazo[4,5-b]pyridin-2-yl)thio)methyl)quinaz-olin-4(3H)-one]",inhibition at 10 µM,human soluble ENPP1,76.5%
"Nc1nc2c(ncn2[C@@H]2O[C@@H]3COP(=O)(O)O[C@H]4[C@@H](O)[C@H](n5cnc6c(N)ncnc65)O[C@@H]4COP(=O)(O)O[C@@H]2[C@@H]3O)c(=O)[nH]1 [cGAMP, 2′,3′-cyclic GMP-AMP, reference compound]","IFN-β in serum, free cGAMP compared with model mice",IFN-β in serum; 5 mg/kg cGAMP i.v.,upregulation
